In the supplement of paper PMC13380429:

Key:
Details in all cases: 72 h
HepG2 [1] = test: relative viability EC50 (midpoint between 100% and the lowest measured viability); higher = less toxic
Calu-3 [2] = test: as above
Vero E6 [3] = test: as above
U2OS [4] = test: as above
Caco-2 [5] = test: as above
HepG2 [6] = test: cell viability relative to DMSO; higher = less toxic
Calu-3 [7] = test: as above
Vero E6 [8] = test: as above
U2OS [9] = test: as above
Caco-2 [10] = test: as above
HepG2 [11] = test: drug sensitivity score (DSS) for viability; higher = more toxic; extreme values may be limits of the assay
Calu-3 [12] = test: as above
Vero E6 [13] = test: as above
U2OS [14] = test: as above
Caco-2 [15] = test: as above

| SMILES | relative viability EC50 (HepG2 [1]) [µM] | relative viability EC50 (Calu-3 [2]) [µM] | relative viability EC50 (Vero E6 [3]) [µM] | relative viability EC50 (U2OS [4]) [µM] | relative viability EC50 (Caco-2 [5]) [µM] | cell viability (HepG2 [6]; 1 nM) [%] | cell viability (HepG2 [6]; 10 nM) [%] | cell viability (HepG2 [6]; 100 nM) [%] | cell viability (HepG2 [6]; 1000 nM) [%] | cell viability (HepG2 [6]; 10000 nM) [%] | cell viability (Calu-3 [7]; 1 nM) [%] | cell viability (Calu-3 [7]; 10 nM) [%] | cell viability (Calu-3 [7]; 100 nM) [%] | cell viability (Calu-3 [7]; 1000 nM) [%] | cell viability (Calu-3 [7]; 10000 nM) [%] | cell viability (Vero E6 [8]; 1 nM) [%] | cell viability (Vero E6 [8]; 10 nM) [%] | cell viability (Vero E6 [8]; 100 nM) [%] | cell viability (Vero E6 [8]; 1000 nM) [%] | cell viability (Vero E6 [8]; 10000 nM) [%] | cell viability (U2OS [9]; 1 nM) [%] | cell viability (U2OS [9]; 10 nM) [%] | cell viability (U2OS [9]; 100 nM) [%] | cell viability (U2OS [9]; 1000 nM) [%] | cell viability (U2OS [9]; 10000 nM) [%] | cell viability (Caco-2 [10]; 1 nM) [%] | cell viability (Caco-2 [10]; 10 nM) [%] | cell viability (Caco-2 [10]; 100 nM) [%] | cell viability (Caco-2 [10]; 1000 nM) [%] | cell viability (Caco-2 [10]; 10000 nM) [%] | drug sensitivity score (HepG2 [11]) | drug sensitivity score (Calu-3 [12]) | drug sensitivity score (Vero E6 [13]) | drug sensitivity score (U2OS [14]) | drug sensitivity score (Caco-2 [15]) |
| --- | --- | --- | --- | --- | --- | --- | --- | --- | --- | --- | --- | --- | --- | --- | --- | --- | --- | --- | --- | --- | --- | --- | --- | --- | --- | --- | --- | --- | --- | --- | --- | --- | --- | --- | --- |
| C/C=C/C=C/C(=O)O [sorbic-acid] | > 10 | > 10 | > 10 | > 10 | > 10 | 87.3 | 97.6 | 90.7 | 107 | 108 | 106 | 99.8 | 84.4 | 91.3 | 110 | 95.4 | 103 | 96.5 | 94.5 | 102 | 99.5 | 98.4 | 94.2 | 102 | 102 | 103 | 93.3 | 106 | 99 | 114 | 0 | 0 | 0 | 0 | 0 |
| CC(=O)N1N=C(c2ccc(N)cc2)c2cc3c(cc2C[C@H]1C)OCO3 [talampanel] | > 10 | > 10 | > 10 | > 10 | > 10 | 101 | 93.9 | 100 | 107 | 99.7 | 98 | 99.6 | 98.2 | 95.6 | 97.3 | 94 | 95.3 | 95.9 | 95.5 | 97.4 | 99 | 101 | 96.7 | 95.5 | 97.7 | 94.7 | 104 | 94.7 | 96.9 | 98.6 | 0 | 0 | 0 | 0 | 0 |
| CCC[C@H](NC(=O)[C@@H]1[C@H]2CCC[C@H]2CN1C(=O)[C@@H](NC(=O)[C@@H](NC(=O)c1cnccn1)C1CCCCC1)C(C)(C)C)C(=O)C(=O)NC1CC1 [telaprevir] | > 10 | > 10 | > 10 | > 10 | > 10 | 115 | 108 | 98.8 | 107 | 87 | 106 | 88.1 | 101 | 93.6 | 97.6 | 100 | 103 | 98.9 | 105 | 99 | 99.2 | 97.9 | 102 | 98.8 | 93.9 | 101 | 93.1 | 95.6 | 102 | 91.5 | 0 | 0 | 0 | 0 | 0 |
| CC(=O)CC/C=C(\C)CC/C=C(\C)CC/C=C(\C)CCC=C(C)C [teprenone] | > 10 | > 10 | > 10 | > 10 | > 10 | 96.3 | 102 | 97.4 | 92.3 | 101 | 92.2 | 88.5 | 99.7 | 95.5 | 94.9 | 94.8 | 103 | 92.6 | 103 | 100 | 102 | 95.4 | 103 | 96.9 | 99.2 | 96.9 | 88.2 | 93.7 | 98.6 | 116 | 0 | 0 | 0 | 0 | 0 |
| CCO[C@@H](Cc1ccc(OCCc2ccc(OS(C)(=O)=O)cc2)cc1)C(=O)O [tesaglitazar] | > 10 | > 10 | > 10 | > 10 | > 10 | 101 | 96.7 | 104 | 91.1 | 98.1 | 105 | 104 | 97.9 | 113 | 110 | 99.2 | 99.5 | 96 | 81.9 | 82.6 | 100 | 95.9 | 95.7 | 101 | 105 | 101 | 86 | 94.1 | 100 | 99.2 | 0 | 0 | 2.7 | 0 | 0 |
| CC1(C)O[C@@H]2[C@@H](CO[C@@]3(COS(N)(=O)=O)OC(C)(C)O[C@@H]23)O1 [topiramate] | > 10 | > 10 | > 10 | > 10 | > 10 | 108 | 96.9 | 91.8 | 95.9 | 94.9 | 110 | 96.6 | 94.8 | 95.2 | 103 | 89.5 | 98.3 | 95.6 | 97.7 | 107 | 98.7 | 94.5 | 98.1 | 105 | 108 | 93.2 | 83.1 | 92.2 | 112 | 98.7 | 0 | 0 | 0 | 0 | 0 |
| CCOC(=O)[C@H](CCc1ccccc1)N[C@@H](C)C(=O)N1[C@H](C(=O)O)C[C@H]2CCCC[C@@H]21 [trandolapril] | > 10 | > 10 | > 10 | > 10 | > 10 | 90.7 | 104 | 96.4 | 100 | 108 | 106 | 98 | 102 | 108 | 102 | 91.6 | 97.3 | 89.6 | 96.1 | 107 | 97.6 | 92.6 | 98.5 | 96 | 99.4 | 93.1 | 86 | 83.2 | 89.6 | 100 | 0 | 0 | 0 | 0 | 0.4 |
| C[C@@H]([C@@H](O)c1ccc(O)cc1)N1CCC(O)(c2ccccc2)CC1 [traxoprodil] | > 10 | > 10 | > 10 | > 10 | > 10 | 98.1 | 91.4 | 104 | 107 | 101 | 98.9 | 94.3 | 93.3 | 109 | 108 | 98.2 | 95.3 | 95.7 | 100 | 98.7 | 100 | 100 | 96.1 | 110 | 101 | 100 | 100 | 92.6 | 99.8 | 97 | 0 | 0 | 0 | 0 | 0 |
| CC(CN(C)C)CN1c2ccccc2CCc2ccccc21 (stereo not given) [trimipramine] | > 10 | > 10 | > 10 | > 10 | > 10 | 103 | 104 | 94.3 | 101 | 89.7 | 92.3 | 101 | 105 | 105 | 89.4 | 103 | 101 | 97.6 | 96.8 | 89.8 | 98.7 | 96.4 | 102 | 98.1 | 97.1 | 95.6 | 87.1 | 98 | 102 | 93.7 | 0 | 0 | 0 | 0 | 0 |
| COc1cc(C(=S)N2CCOCC2)ccc1O [vanitiolide] | > 10 | > 10 | > 10 | > 10 | > 10 | 99.8 | 92.8 | 97.2 | 102 | 109 | 108 | 108 | 99.1 | 98.4 | 104 | 97.2 | 91.6 | 93.4 | 95.2 | 105 | 104 | 99.5 | 95.4 | 98.7 | 101 | 87.7 | 92.9 | 102 | 106 | 97.6 | 0 | 0 | 0 | 0 | 0 |
| CCC1=C[C@@H]2CN(C1)Cc1c([nH]c3ccccc13)[C@@](C(=O)OC)(c1cc3c(cc1OC)N(C)[C@H]1[C@@](O)(C(=O)OC)[C@H](OC(C)=O)[C@]4(CC)C=CCN5CC[C@]31[C@@H]54)C2 [vinorelbine] | 0.0659 | 0.137 | 0.754 | 0.205 | 0.0465 | 103 | 92.8 | 58.6 | 32.7 | 39 | 97.5 | 100 | 72.2 | 51.1 | 40.5 | 104 | 101 | 99.5 | 54 | 31.2 | 95.8 | 97 | 77.5 | 32.4 | 22.7 | 98.1 | 94.7 | 58.7 | 53 | 45.1 | 17.5 | 12.6 | 9.2 | 15.2 | 15.3 |
| O=C(NCCNCC(O)COc1ccc(O)cc1)N1CCOCC1 (stereo not given) [xamoterol] | > 10 | > 10 | > 10 | > 10 | > 10 | 99.1 | 99.4 | 96.2 | 102 | 102 | 106 | 104 | 110 | 100 | 93.6 | 93.8 | 98.5 | 98 | 98.5 | 95.7 | 99.7 | 91.3 | 96.5 | 99.1 | 101 | 95.8 | 96.7 | 99.9 | 90.3 | 99.5 | 0 | 0 | 0 | 0 | 0 |
| Cc1ncc(-c2csc(N=C(N)N)n2)[nH]1 [zaltidine] | > 10 | > 10 | > 10 | > 10 | > 10 | 105 | 105 | 101 | 94.5 | 107 | 108 | 96 | 99.2 | 103 | 103 | 99.6 | 92.6 | 87.3 | 94.2 | 107 | 104 | 97.9 | 97.8 | 104 | 106 | 101 | 99 | 92.3 | 92.5 | 109 | 0 | 0 | 0 | 0 | 0 |
| CC(c1cc2ccccc2s1)N(O)C(N)=O (stereo not given) [zileuton] | > 10 | > 10 | > 10 | > 10 | > 10 | 109 | 95.1 | 101 | 94.2 | 102 | 89.5 | 90.6 | 102 | 96.1 | 94.6 | 103 | 105 | 107 | 101 | 99.7 | 97.1 | 98.7 | 96.9 | 102 | 96.4 | 93.7 | 96.3 | 93.3 | 100 | 91 | 0 | 0 | 0 | 0 | 0 |
